Assay results from patent EP0135657B1, “Antibacterial drugs and/or feed concentrates” (priority 1983, dated 1985).

Key:
[1] = test system: Bordatella bronchiseptica; test: Minimum inhibitory concentration in vitro in broth containing phenol red and glucose (Difco); assay type: cell-based; conditions: for Mindesthemmkonzentration durch Chlorchinaldol in Kombination verringert auf: fraction of the MIC of the substance alone, stated for the bacteria used, for Bordatella bronchiseptica as 1 order of magnitude; for Werte der Mindesthemmkonzentration [MIC-Werte] in mg/l in Bezug auf die Bakterienstämme Bordatella bronchiseptica: single substance, inhibits bacterial growth for 24 hours
From the text: (§1) Diese Feststellung wird durch die folgenden Versuchsergebnisse bestätigt. Die Mindesthemmkoncentrationen von Kombinationen von 2 bis 4 der obigen Verbindungen in erfindungsgemäßen Arzneimitteln beziehungsweise der einzelnen obigen Verbindungen als vergleichssubstanzen wurden in vitro gegen die Bakterienstämme Bordatella bronchiseptica und Pasteurella multocid in einer Phenolrot und Glucose enthaltenden Brühe [Hersteller: Firma Difco] bestimmt. In der folgenden Tabelle sind die Werte der Mindesthemmkonzentration [MIC-Werte] in mg/I, die den Bakterienzuwachs 24. Stunden lang hemmen, zusammengestellt.
(§2) Die Werte der Mindesthemmkonzentration [MIC-Werte] bei den Kombinationen bedeuten, daß die angegebenen Wirkstoffe gemeinsam in den angegebenen Konzentrationen das Wachstum der beiden verschiedenen Bakterienstämme bereits hemmen.

[2] = test system: Pasteurella multocida; test: as above; assay type: cell-based; conditions: single substance; inhibits bacterial growth for 24 hours
From the text: as §1, §2

[3] = test system: Bordatella bronchiseptica; conditions: relatively high doses needed; J. Am. Vet. Med. Assoc., 6 [1979], 597-600; cited from earlier work
[4] = test system: Schnupfen; test: Efficacy against Schnupfen in in vivo investigations; conditions: Chlorchinaldol alone; therapeutically effective dose not reached in vivo
From the text: (§3) Obwohl jeder der obigen Wirkstoffe eine antibakterielle Wirkung hat, sind verhältnismäßig hohe Dosen von 2-[Methoxycarbonylhydrazono)-methylen]-chinoxalin-1,4-dioxyd {Carbadox®} und 2,4-Diamino-5-[3',4',5'-tri-(methoxy)-benzyl] pyrimidin {Trimethoprim} bei alleiniger Verwendung derselben erforderlich. Was 2-(Methyl)-5,7-di-(chlor)-8-(hydroxy)-chinolin {Chlorchinaldol} betrifft, ist dieses eine bekannte Verbindung mit einer milden baktericiden und fungiciden Wirkung. Sie wird in erster Linie für dermatologische Zwecke, zur Behandlung von Hautinfektionen, verwendet. Obwohl bei 2-(Methyl)-5,7-di-(chlor)-8-(hydroxy)-chinolin (Chlorchinaldol) der in vitro bestimmte Wert der Mindesthemmkonzentration sehr niedrig ist, weshalb eine hohe Wirksamkeit zu erwarten wäre, ist es an sich zum Beispiel gegen Schnupfen unwirksam, wobei bei Untersuchungen in vivo die therapeutisch wirksame Dosis nicht erreicht wurde. 2-(Methyl)-5,7-di-(chlor)-8-(hydroxy)-chinolin (Chlorchinaldol) wird sehr schlecht absorbiert, weshalb im Blutplasma eine Konzentration von höchstens […] erreicht wird. Zur therapeutischen Wirkung wird jedoch eine wesentlich höhere Konzentration, nämlich etwa 15 bis […], gebraucht. Mit 2-(Methyl)-5,7-di-(chlor)-8-(hydroxy)-chinolin {Chlorchinaldol} allein wird also die zur Therapie erforderliche Konzentration im Plasma nicht erreicht. […]

[5] = Blood plasma concentration reached in in vivo investigations; conditions: Chlorchinaldol alone, very poorly absorbed, therapeutic effect said to need about 15 bis 20 p/ml, read-out: Konzentration im Blutplasma
From the text: as §3

| SMILES | Mindesthemmkonzentration durch Chlorchinaldol in Kombination verringert auf [1] | Werte der Mindesthemmkonzentration [MIC-Werte] in mg/l in Bezug auf die Bakterienstämme Bordatella bronchiseptica [1] | Werte der Mindesthemmkonzentration [MIC-Werte] in mg/l in Bezug auf die Bakterienstämme Pasteurella multocida [2] | Ergebnisse der Behandlung mit Bordatella bronchiseptica infizierter Tiere [3] | Wirksamkeit gegen Schnupfen [4] | Cmax [5] [ng/mL] |
| --- | --- | --- | --- | --- | --- | --- |
| COC(=O)NN=Cc1c[n+]([O-])c2ccccc2[n+]1[O-] [Carbadox®, 2-[(Methoxycarbonylhydrazono)-methylen]-chinoxalin-1,4-dioxyd] | 1/10 | 50 mg/L | 10 mg/L | verhältnismäßig günstige Ergebnisse |  |  |
| Cc1ccc2c(Cl)cc(Cl)c(O)c2n1 [Chlorchinaldol, 2-(Methyl)-5,7-di-(chlor)-8-(hydroxy)-chinolin] |  | 0,5 mg/l | 0,5 mg/l |  | unwirksam | ≤ 5000 |
| CN(C)[C@@H]1C(O)=C(C(N)=O)C(=O)[C@@]2(O)C(O)=C3C(=O)c4c(O)cccc4[C@@](C)(O)[C@H]3[C@H](O)[C@@H]12 [Oxytetracyclin, 4-Dimethylamino-3,5,6,10,12,12a-hexahydroxy-6-methyl-1,11-dioxo-1,4,4a,5,5a,6,11,12a-octahydro-naphthacen-2-carbonsäureamid] | 1/10 | 5 mg/L | 5 mg/L |  |  |  |
| COc1cc(Cc2cnc(N)nc2N)cc(OC)c1OC [Trimethoprim, 2,4-Diamino-5-[3',4',5'-tri-(me-thoxy)-benzyl]-pyrimidin] | 1/10 | 50 mg/L | 50 mg/L |  |  |  |
